From patent publication US20030068615A1, “Polypeptides that bind HIV gp120 and related nucleic acids, antibodies, compositions, and methods of use” (priority 1999, published 2003)
Several values for one entry are separate records, joined by “and”; a condition that tells them apart may be missing. Equal entries are not always repeated. Where two headings read alike, the source gives them in different places.

Biological target: HIV-1LAI envelope gp120 (Human immunodeficiency virus type 1 group M subtype B, UniProt P03377)
Assay type: binding
Conditions: for Counts per 20′ Average-background: CCR5 18-mer scan, radiolabeled HIV-1LAI gp120; for number of radioactive decays (counts) counted: human CD4 21-mer scan, empty control 2075
[1] = STRL33 18-mer scan, background subtracted, first of two count columns
[2] = STRL33 18-mer scan, background subtracted, second of two count columns
[3] = Panel G, alanine replacements and serial truncations (Z) of CD4 polypeptides, empty control 580
[4] = CXCR4 18-mer scan, background subtracted, empty control 0
[5] = CXCR4 18-mer scan, empty control 412
[6] = Panel E, 9-mers and 12-mers of CD4, empty control 571
[7] = Panel C, 15-mers and 18-mers of CD4, empty control 556
[8] = Panel D, 9-mers and 12-mers of CD4, empty control […]
[9] = Panel B, 15-mers and 18-mers of CD4, empty control 575

Question: How did the “radioactive counts recorded in twenty minutes” value (from here on “radioactive counts recorded”) [1] turn out when “FYTSMLILTCITVDRFIV [STRL33 segment 113-130]” was run?
Answer: The value was 744.5 counts.

Question: And the “radioactive counts recorded” value [2]?
Answer: Its value is 907.5 counts.

Question: How did the “COUNTS of radiolabeled gp120 retained” value [3] turn out when GAQVEFSFPLAFTVE was run?
Answer: The value was 18079 counts and 17733 counts.

Question: With “GCEFENTVHKWISITEAL [CXCR4 segment 273-290]” as the sequence, how does the “radioactive counts recorded” value [4] read?
Answer: The value was 264 counts.

Question: And the “radioactive counts recorded” value [5]?
Answer: The value was 676 counts.

Question: With GEAVEFSFPLAFTVE as the sequence, how does the “COUNTS of radiolabeled gp120 retained” value [3] read?
Answer: The value was 19756 counts and 17500 counts.

Question: For GEKFRNYLLVFFQKHIAK [CCR5 segment 301-], which “Counts per 20′ Average-background” value (background subtracted) is on record?
Answer: Its value is 69 counts per 20′.

Question: How did the “number of radioactive decays (counts) counted” value (“number of radioactive decays” for short) turn out when “GELWWQAERASSSKSWITFDL [human CD4 236-256]” was run?
Answer: The value was 2730 counts.

Question: Which “COUNTS of radiolabeled gp120 retained” value [3] does the source give for GEQAEFSFPLAFTVE here?
Answer: The value was 14764 counts and 13000 counts.

Question: Which “COUNTS of radiolabeled gp120 retained” value [3] does the source give for GEQVAFSFPLAFTVE here?
Answer: Its value is 16668 counts and 13930 counts.

Question: GEQVEASFPLAFTVE was tested. Which “COUNTS of radiolabeled gp120 retained” value [3] did it give?
Answer: Its value is 6793 counts and 6533 counts.

Question: GEQVEFAFPLAFTVE was tested. Which “COUNTS of radiolabeled gp120 retained” value [3] did it give?
Answer: The value was 21681 counts and 20072 counts.

Question: How did the “COUNTS of radiolabeled gp120 retained” value [3] turn out when GEQVEFSAPLAFTVE was run?
Answer: Its value is 7767 counts and 7378 counts.

Question: With GEQVEFSFALAFTVE as the sequence, how does the “COUNTS of radiolabeled gp120 retained” value [3] read?
Answer: Its value is 20480 counts and 19480 counts.

Question: For GEQVEFSFP, which “COUNTS of radiolabeled gp120 retained” value [6] is on record?
Answer: Its value is 697 counts.

Question: For GEQVEFSFPAAFTVE, which “COUNTS of radiolabeled gp120 retained” value [3] is on record?
Answer: Its value is 10024 counts and 10589 counts.

Question: Which “COUNTS of radiolabeled gp120 retained” value [3] does the source give for GEQVEFSFPLAATVE here?
Answer: Its value is 10130 counts and 9572 counts.

Question: GEQVEFSFPLAF was tested. Which “COUNTS of radiolabeled gp120 retained” value [6] did it give?
Answer: Its value is 1729 counts.

Question: With GEQVEFSFPLAFAVE as the sequence, how does the “COUNTS of radiolabeled gp120 retained” value [3] read?
Answer: The value was 20627 counts and 19516 counts.

Question: GEQVEFSFPLAFTAE was tested. Which “COUNTS of radiolabeled gp120 retained” value [3] did it give?
Answer: Its value is 18797 counts and 16765 counts.

Question: With GEQVEFSFPLAFTVA as the sequence, how does the “COUNTS of radiolabeled gp120 retained” value [3] read?
Answer: The value was 18371 counts and 18187 counts.

Question: With GEQVEFSFPLAFTVE as the sequence, how does the “COUNTS of radiolabeled gp120 retained” value [7] read?
Answer: Its value is 4656 counts.

Question: And the “COUNTS of radiolabeled gp120 retained” value [3]?
Answer: The value was 18856 counts and 18867 counts and 20691 counts and 17662 counts and 19190 counts and 18219 counts.

Question: Which “COUNTS of radiolabeled gp120 retained” value [7] does the source give for GEQVEFSFPLAFTVEKLT here?
Answer: The value was 1643 counts.

Question: How did the “COUNTS of radiolabeled gp120 retained” value (Panel A, 21-mers of CD4, empty control 515 and 617) turn out when “GEQVEFSFPLAFTVEKLTGSG [human CD4 216-236]” was run?
Answer: Its value is 652 counts.

Question: What about the “number of radioactive decays” value of the same sequence?
Answer: Its value is 18549 counts.

Question: Which “COUNTS of radiolabeled gp120 retained” value [3] does the source give for GEQVEFSFPLTFTVE here?
Answer: The value was 17397 counts and 18318 counts.

Question: Which “Binding Results For Window Length (counts bound-background), 9” value (STRL33 amino terminus, 9-mer starting at the first residue of the printed sequence, background subtracted) does the source give for GFSSFNDSSQEEEQAFLQ here?
Answer: Its value is 171 counts.

Question: And the “Binding Results For Window Length (counts bound-background), 12” value (STRL33 amino terminus, 12-mer starting at the first residue of the printed sequence, background subtracted)?
Answer: The value was 480 counts.

Question: What about the “Binding Results For Window Length (counts bound-background), 15” value (STRL33 amino terminus, 15-mer starting at the first residue of the printed sequence, background subtracted) of the same sequence?
Answer: The value was 270 counts.

Question: What about the “Binding Results For Window Length (counts bound-background), 18” value (STRL33 amino terminus, 18-mer starting at the first residue of the printed sequence, background subtracted) of the same sequence?
Answer: Its value is 1639 counts.

Question: For “GKLHQEVNLVVMRATQLQKNL [human CD4 306-326]”, which “number of radioactive decays” value is on record?
Answer: The value was 1776 counts.

Question: With GLHYTCSSEFPYSQYQFW as the sequence, how does the “Counts per 20′ Average-background” value (background subtracted) read?
Answer: The value was 301 counts per 20′.

Question: GLNNCSSSNRLDQAMQVT [CCR5 segment 265-] was tested. Which “Counts per 20′ Average-background” value (background subtracted) did it give?
Answer: Its value is −31 counts per 20′.

Question: For GLTANSDTH, which “COUNTS of radiolabeled gp120 retained” value [8] is on record?
Answer: Its value is 481 counts.

Question: GLTANSDTHLLQ was tested. Which “COUNTS of radiolabeled gp120 retained” value [8] did it give?
Answer: Its value is 574 counts.

Question: With GLTANSDTHLLQGQS as the sequence, how does the “COUNTS of radiolabeled gp120 retained” value [9] read?
Answer: Its value is 532 counts.

Question: How did the “COUNTS of radiolabeled gp120 retained” value [9] turn out when GLTANSDTHLLQGQSLTL was run?
Answer: The value was 572 counts.

Question: “GLVGNSLVLVISIFYHKL [STRL33 segment 45-62]” was tested. Which “radioactive counts recorded” value [1] did it give?
Answer: Its value is 164.5 counts.

Question: And the “radioactive counts recorded” value [2]?
Answer: Its value is 95.5 counts.

Question: Which results are given for “GLVILVMGYQKKLRSMTD [CXCR4 segment 57-74]”?
Answer: radioactive counts recorded in twenty minutes [4]: 157 counts; radioactive counts recorded in twenty minutes [5]: 569 counts

Question: Which “number of radioactive decays” value does the source give for GMWQCLLSDSGQVLLESNIKV here?
Answer: Its value is 4185 counts.

Question: What does the source list for GNFLCKAVHVIYTVNLYS?
Answer: radioactive counts recorded in twenty minutes [4]: 231 counts; radioactive counts recorded in twenty minutes [5]: 643 counts

Question: GNFPLIIKN was tested. Which “COUNTS of radiolabeled gp120 retained” value [8] did it give?
Answer: Its value is 600 counts.

Question: With GNFPLIIKNLKI as the sequence, how does the “COUNTS of radiolabeled gp120 retained” value [8] read?
Answer: Its value is 547 counts.

Question: Which “COUNTS of radiolabeled gp120 retained” value [9] does the source give for GNFPLIIKNLKIEDS here?
Answer: The value was 624 counts.

Question: Which “COUNTS of radiolabeled gp120 retained” value [9] does the source give for GNFPLIIKNLKIEDSDTY here?
Answer: The value was 557 counts.

Question: Which “Counts per 20′ Average-background” value (background subtracted) does the source give for GNTMCQLLTGLYFIGFFS [CCR5 segment 97-] here?
Answer: The value was 941 counts per 20′.

Question: For GQSLTLTLE, which “COUNTS of radiolabeled gp120 retained” value [8] is on record?
Answer: The value was 777 counts.

Question: How did the “number of radioactive decays” value turn out when “GQVLLESNIKVLPTWSTPVQP [human CD4 376-396]” was run?
Answer: Its value is 2089 counts.

Question: With “GSGDYDSMKEPCFREENA [CXCR4 segment 17-34]” as the sequence, how does the “radioactive counts recorded” value [4] read?
Answer: The value was −28 counts.

Question: And the “radioactive counts recorded” value [5]?
Answer: The value was 384 counts.

Question: With “GVSNQWKSSEDNSKTFSA [STRL33 segment 313-330]” as the sequence, how does the “radioactive counts recorded” value [1] read?
Answer: The value was 208.5 counts.

Question: And the “radioactive counts recorded” value [2]?
Answer: Its value is 306.5 counts.

Question: For GVVTSVITWVVAVFASLP, which “Counts per 20′ Average-background” value (background subtracted) is on record?
Answer: The value was 69 counts per 20′.

Question: For GYHDEAISTVVLATQMTL, which “radioactive counts recorded” value [1] is on record?
Answer: Its value is 754.5 counts.

Question: What about the “radioactive counts recorded” value [2] of the same sequence?
Answer: The value was 1181.5 counts.
